Test [1] deals with histidine tagged recombinant human full-length Bruton Agammaglobulinemia Tyrosine Kinase (Btk) (Homo sapiens (Human), UniProt Q06187). As to the kind of experiment: Btk Kinase Inhibition Assay (fluorescence polarization, KinEASE FP Fluorescein Green). As to conditions: 10 μM ATP, 250 μM substrate, 60 minutes room temperature; Ki from IC50 by Cheng-Prusoff. The test is classed as biochemical. The protocol:
Kinase Binding Btk Kinase Inhibition Assay
Fluorescence polarization-based kinase assays were performed in 384 well-plate format using histidine tagged recombinant human full-length Bruton Agammaglobulinemia Tyrosine Kinase (Btk) and a modified protocol of the KinEASE™ FP Fluorescein Green Assay supplied from Millipore. Kinase reaction were performed at room temperature for 60 minutes in presence of 250 μM substrate, 10 μM ATP and variable test article concentrations. The reaction was stopped with EDTA/kinease detection reagents and the polarization measured on a Tecan 500 instrument. From the dose-response curve obtained, the IC50 was calculated using Graph Pad Prisms® using a non linear fit curve. The Km for ATP on each enzyme was experimentally determined and the Ki values calculated using the Cheng-Prusoff equation (see: Cheng Y, Prusoff W H. (1973) Relationship between the inhibition constant (K1) and the concentration of inhibitor which causes 50 percent inhibition (I50) of an enzymatic reaction”. Biochem Pharmacol 22 (23): 3099-108).
A general note: Polarisation of emitted light reports the rotation of a fluorescent probe.

The subject of a further test is Splenocytes. The test can be described thus: Splenic Cell Proliferation Assay (anti-IgM stimulated B cell proliferation, Cell Titer-Glo). The test is classed as cell-based. As to conditions: Splenocyte; CD1 mouse splenocytes, 2.5 ug/ml anti-IgM F(ab')2, 72 h; read-out: EC50 (nM), Inhibition of splenic cell proliferation. How it is done: Splenic Cell Proliferation Assay
Splenocytes were obtained from 6 week old male CD1 mice (Charles River Laboratories Inc.). Mouse spleens were manually disrupted in PBS and filtered using a 70 um cell strainer followed by ammonium chloride red blood cell lysis. Cells were washed, resuspended in Splenocyte Medium (HyClone RPMI supplemented with 10% heat-inactivated FBS, 0.5× non-essential amino acids, 10 mM HEPES, 50 uM beta mercaptoethanol) and incubated at 37° C., 5% CO2 for 2 h to remove adherent cells. Suspension cells were seeded in 96 well plates at 50,000 cells per well and incubated at 37° C., 5% CO2 for 1 h. Splenocytes were pre-treated in triplicate with 10,000 nM curves of Formula 1 compounds for 1 h, followed by stimulation of B cell proliferation with 2.5 ug/ml anti-IgM F(ab′)2 (Jackson ImmunoResearch) for 72 h. Cell proliferation was measured by Cell Titer-Glo Luminescent Assay (Promega). EC50 values (50% proliferation in the presence of compound as compared to vehicle treated controls) were calculated from dose response compound curves using GraphPad Prism Software.
For orientation: Cellular ATP, detected with luciferase, serves as a proxy for viable cell number.

In another test the test system is Balb/c mice. The test can be described thus: Mouse Arthus. The test is classed as in vivo. As to conditions: delivered orally at 30 mg/kg, female Balb/c mice. How it is done:
Mouse Arthus studies were conducted as reported in Braselmann S, Taylor V, Zhao H, Wang S, Sylvain C, Baluom M, Qu K, Herlaar E, Lau A, Young C, Wong B R, Lovell S, Sun T, Park G, Argade A, Jurcevic S, Pine P, Singh R, Grossbard E B, Payan D G, Masuda E S: R406 an orally available spleen tyrosine kinase inhibitor blocks fc receptor signaling and reduces immune-complex mediated inflammation. J Pharmacol Exp Ther, 2006, 319:998-1008.
In summary, female Balb/c mice (6-7 weeks on arrival) were habituated to the animal facility for at least 4 days. On the day of the experiment, animals were pre-treated (t=minus 1 h) with compound or vehicle alone by gavage (PO). At t=0, animals were injected intravenously (IV; 0.1 mL/mouse) with saline containing chicken ovalbumin and Evan's blue (10 mg/mL of each). Ten minutes later (t=10 min), animals were anesthesized with isoflurane, the dorsal surface was shaved and rabbit anti-chicken ovalbumin antibody was then injected intradermally at one site on the right side of the animal (25 μg in 30 μL). […]
The animals were then returned to their home cage and skin punches (8 mm) were collected from each injection site four hours later. […] The amount of Evan's blue in the formamide solution was then assessed by spectrophotometry (630 nm) as a measure of serum extravasation into the dermis.

SMILES strings stand for the structures.

Chain of histidine tagged recombinant human full-length Bruton Agammaglobulinemia Tyrosine Kinase (Btk) (Q06187 whole entry): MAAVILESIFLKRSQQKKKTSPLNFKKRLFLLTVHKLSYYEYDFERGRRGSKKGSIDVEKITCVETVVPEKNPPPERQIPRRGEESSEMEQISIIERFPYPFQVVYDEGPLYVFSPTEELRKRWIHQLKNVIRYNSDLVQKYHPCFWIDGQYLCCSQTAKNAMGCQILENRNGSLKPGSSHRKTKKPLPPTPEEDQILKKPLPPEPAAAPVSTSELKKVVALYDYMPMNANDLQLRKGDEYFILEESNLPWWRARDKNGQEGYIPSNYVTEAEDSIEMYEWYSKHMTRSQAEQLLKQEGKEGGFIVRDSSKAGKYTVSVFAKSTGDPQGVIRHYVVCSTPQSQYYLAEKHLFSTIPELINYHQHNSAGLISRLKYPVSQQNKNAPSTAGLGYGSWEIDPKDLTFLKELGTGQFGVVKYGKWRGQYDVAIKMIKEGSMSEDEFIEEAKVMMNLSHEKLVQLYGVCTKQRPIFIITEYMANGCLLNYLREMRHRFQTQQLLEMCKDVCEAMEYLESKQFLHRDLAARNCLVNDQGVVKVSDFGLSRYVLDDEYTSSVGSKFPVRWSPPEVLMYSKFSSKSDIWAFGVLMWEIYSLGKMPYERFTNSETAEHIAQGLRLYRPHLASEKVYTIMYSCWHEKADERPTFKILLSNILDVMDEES

The Ki is a measure of affinity in units of concentration, obtained from inhibition or displacement. Regarding `Nc1ncnc2c(C3CCCC3)nn(-c3ccc(Oc4cccc(OCc5cncs5)c4)cc3)c12` [Compound 1], in test [1], the Ki is below 100 nM. The EC50 in the test on Splenocytes is below 100 nM.

With `Cc1ncc(COc2cccc(Oc3ccc(-n4nc(C5CCCC5)c5ncnc(N)c54)cc3)c2)s1` [Compound 2], in test [1], the Ki is below 100 nM. Also, the EC50 in the test with Splenocytes is below 100 nM.

On to `Cc1ncc(COc2cc(F)cc(Oc3ccc(-n4nc(C5CCOCC5)c5ncnc(N)c54)cc3)c2)s1` [Compound 3], for which, in test [1], the inhibition constant Ki was below 100 nM. In addition, the EC50 in the test on Splenocytes was below 100 nM.

On to `Cn1cncc1COc1cc(F)cc(Oc2ccc(-n3nc(C4CCOCC4)c4ncnc(N)c43)cc2)c1` [Compound 4], for which, in test [1], the Ki is below 100 nM. In the test on Splenocytes, the EC50 is below 100 nM.

Turning to `Cc1ncc(COc2cc(F)cc(Oc3ccc(-n4nc(C5CCOCC5)c5ncnc(N)c54)cc3)c2)o1` [Compound 5], the Ki in test [1] is below 100 nM. Also, the EC50 in the test on Splenocytes was below 100 nM.

Consider `Cc1ccc(COc2cc(F)cc(Oc3ccc(-n4nc(C5CCCC5)c5ncnc(N)c54)cc3)c2)cn1` [Compound 6], for which the Ki in test [1] was below 100 nM. Moreover, the EC50 in the test with Splenocytes is below 100 nM.

As for `Cc1ncc(COc2cc(F)cc(Oc3ccc(-n4nc(C5CCCC5)c5ncnc(N)c54)cc3)c2)s1` [Compound 7], the Ki in test [1] is below 100 nM. For the same compound, the EC50 in the test with Splenocytes is below 100 nM.

For `Cc1ncc(COc2cc(F)cc(Oc3ccc(-n4nc(C5CCCC5)c5ncnc(N)c54)cc3)c2)cn1` [Compound 8], the Ki in test [1] was below 100 nM. In addition, the EC50 in the test on Splenocytes is below 100 nM.

Take `Cc1ncc(COc2cc(F)cc(Oc3ccc(-n4nc(C(C)C)c5ncnc(N)c54)cc3)c2)s1` [Compound 9]: in test [1], the Ki was below 100 nM. The “efficacy in mouse Arthus (Evan's blue serum extravasation into the dermis)” value with Balb/c mice was “demonstrated efficacy”. Besides, the EC50 with Splenocytes is below 100 nM.

Take `Cc1ncc(COc2cc(F)cc(Oc3ccc(-n4nc(C(C)C)c5ncnc(N)c54)cc3)c2)cn1` [Compound 10]: the Ki in test [1] is below 100 nM. In addition, in the test on Balb/c mice, the “efficacy in mouse Arthus (Evan's blue serum extravasation into the dermis)” value is listed as “demonstrated efficacy”. The EC50 in the test on Splenocytes is below 100 nM.

For the compound `Cc1ccc(COc2cc(F)cc(Oc3ccc(-n4nc(C(C)C)c5ncnc(N)c54)cc3)c2)cn1` [Compound 11], the inhibition constant Ki in test [1] is below 100 nM. For the same compound, the EC50 in the test with Splenocytes is below 100 nM.

Turning to `CC(C)c1nn(-c2ccc(Oc3cc(F)cc(OCc4ccccc4)c3)cc2)c2c(N)ncnc12` [Compound 12], the Ki in test [1] was below 100 nM. Besides, the EC50 with Splenocytes was below 100 nM.

For `Nc1ncnc2c(C3CCOCC3)nn(-c3ccc(Oc4cc(F)cc(OCc5ccccc5)c4)cc3)c12` [Compound 13], in test [1], the Ki was below 100 nM. Besides, in the test with Splenocytes, the EC50 is below 100 nM.

Regarding `Cc1ccc(COc2cc(F)cc(Oc3ccc(-n4nc(C5CCOCC5)c5ncnc(N)c54)cc3)c2)cn1` [Compound 14], the Ki in test [1] was below 100 nM. Moreover, the EC50 in the test on Splenocytes is below 100 nM.

For `Cc1ncc(COc2cc(F)cc(Oc3ccc(-n4nc(C5CCOCC5)c5ncnc(N)c54)cc3)c2)cn1` [Compound 15], in test [1], the Ki was below 100 nM.

Values taken from patent US9795608B2, “Protein kinase inhibitors” (PHARMASCIENCE, INC., priority 2012, dated 2017).
